Literature values in paper PMC10035389, “Safety, Tolerability, and Pharmacokinetics of TAK-931, a Cell Division Cycle 7 Inhibitor, in Patients with Advanced Solid Tumors: A Phase I First-in-Human Study” (Cancer Research Communications, 2022).

Test system: patients with advanced solid tumors
Settings: human, in vivo; cited from earlier work

## C[C@@]1(c2ncncc2F)NC(=O)c2cc(-c3cn[nH]c3)ccc21 [LY3143921]
  Rate of drug-related orthostatic hypotension: 50%
